Results as given in patent US8148362B2, “Compound having heterocyclic ring” (Research Foundation Itsuu Laboratory, priority 2006, dated 2012).

Legend:
[1] = system: E. faecalis SR7914; assay: MIC by CLSI standard method (Test Example 1); type: cell-based; details: Enterococcus faecalis, cation-adjusted Mueller Hinton Broth, about 5×10^5 CFU/mL
Procedure: (§1) Minimal inhibitory concentration (MIC: μg/ml) against different strains of bacteria was assayed according to the standard method recommended by CLSI (clinical and laboratory standards institute). Samples were prepared from test compound solution in DMSO (1280 μg/mL) by two fold (serial) dilution with DMSO. The sample was added to bacteria suspension at the concentration of 5%, and MIC was determined. Mueller Hinton Broth, which has been adjusted for cation concentration, was used for culture media in this test. The inoculation concentration was about 5×10^5 CFU/mL.

[2] = system: S. aureus smith; assay: MIC by CLSI standard method (Test Example 1); type: cell-based; details: Staphylococcus aureus, cation-adjusted Mueller Hinton Broth, about 5×10^5 CFU/mL
Procedure: as §1

[3] = system: E. faecium SR7917; assay: MIC by CLSI standard method (Test Example 1); type: cell-based; details: Enterococcus faecium, cation-adjusted Mueller Hinton Broth, about 5×10^5 CFU/mL
Procedure: as §1

[4] = system: S. aureus ATCC 700787; assay: MIC by CLSI standard method (Test Example 1); type: cell-based; details: Staphylococcus aureus, ATCC700787, cation-adjusted Mueller Hinton Broth, about 5×10^5 CFU/mL
Procedure: as §1

[5] = system: E. faecalis ATCC 29212; assay: MIC by CLSI standard method (Test Example 1); type: cell-based; details: Enterococcus faecalis, ATCC29212, cation-adjusted Mueller Hinton Broth, about 5×10^5 CFU/mL
Procedure: as §1

[6] = system: S. aureus FDA 209P; assay: MIC by CLSI standard method (Test Example 1); type: cell-based; details: Staphylococcus aureus, FDA209P, cation-adjusted Mueller Hinton Broth, about 5×10^5 CFU/mL
Procedure: as §1

[7] = system: E. faecalis SR7914; assay: MIC of quinolone compounds (Test Example 2); type: cell-based; details: Enterococcus faecalis, procedure of Test Example 1
Procedure: as §1
(§2) The quinolone compounds of the invention were tested for antimicrobial activity according to the procedure in Test Example 1.

[8] = system: S. aureus SR3637; assay: MIC of quinolone compounds (Test Example 2); type: cell-based; details: Staphylococcus aureus, procedure of Test Example 1
Procedure: as §1, §2

[9] = system: E. faecalis ATCC 29212; assay: MIC of quinolone compounds (Test Example 2); type: cell-based; details: Enterococcus faecalis, ATCC29212, procedure of Test Example 1
Procedure: as §1, §2

[10] = system: S. aureus FDA 209P; assay: MIC of quinolone compounds (Test Example 2); type: cell-based; details: Staphylococcus aureus, FDA209P, procedure of Test Example 1
Procedure: as §1, §2

Q: For `CC(=O)NC[C@H]1CN(c2cc(F)c(N3CCNN(C(=O)Nc4ccncc4)CC3)c(F)c2)C(=O)O1` [Example 85], which MIC [1] is on record?
A: ≤ 1 µg/mL

Q: And the MIC [2]?
A: ≤ 1 µg/mL

Q: What about the MIC [3] of the same compound?
A: ≤ 1 µg/mL

Q: What about the MIC [4] of the same compound?
A: ≤ 1 µg/mL

Q: And the MIC [5]?
A: ≤ 1 µg/mL

Q: What about the MIC [6] of the same compound?
A: ≤ 1 µg/mL

Q: Which MIC [1] does the source give for `O=C(NC[C@H]1CN(c2cc(F)c(N3CCn4c(=O)c5cccnc5n4CC3)c(F)c2)C(=O)O1)C(F)F` [Example 82] here?
A: ≤ 1 µg/mL

Q: What about the MIC [2] of the same compound?
A: ≤ 1 µg/mL

Q: And the MIC [3]?
A: ≤ 1 µg/mL

Q: What about the MIC [4] of the same compound?
A: ≤ 1 µg/mL

Q: What about the MIC [5] of the same compound?
A: ≤ 1 µg/mL

Q: And the MIC [6]?
A: ≤ 1 µg/mL

Q: With `CC(=O)NC[C@H]1CN(c2cc(F)c(N3CCNN(C(=O)CO)CC3)c(F)c2)C(=O)O1` [Example 91] as the compound, how does the MIC [1] read?
A: ≤ 1 µg/mL

Q: What about the MIC [2] of the same compound?
A: ≤ 1 µg/mL

Q: And the MIC [3]?
A: ≤ 1 µg/mL

Q: And the MIC [4]?
A: ≤ 1 µg/mL

Q: And the MIC [5]?
A: ≤ 1 µg/mL

Q: And the MIC [6]?
A: ≤ 1 µg/mL

Q: Which MIC [1] does the source give for `CC(=O)NC[C@H]1CN(c2cc(F)c(N3CCn4c(=O)c5cccnc5n4CC3)c(F)c2)C(=O)O1` [Example 81] here?
A: ≤ 1 µg/mL

Q: What about the MIC [2] of the same compound?
A: ≤ 1 µg/mL

Q: And the MIC [3]?
A: ≤ 1 µg/mL

Q: And the MIC [4]?
A: ≤ 1 µg/mL

Q: And the MIC [5]?
A: ≤ 1 µg/mL

Q: And the MIC [6]?
A: ≤ 1 µg/mL

Q: Which MIC [1] does the source give for `O=C(NC[C@H]1CN(c2cc(F)c(N3CCNN(C(=O)Nc4ccncc4)CC3)c(F)c2)C(=O)O1)C(F)F` [Example 86] here?
A: ≤ 1 µg/mL

Q: And the MIC [2]?
A: ≤ 1 µg/mL

Q: And the MIC [3]?
A: ≤ 1 µg/mL

Q: What about the MIC [4] of the same compound?
A: ≤ 1 µg/mL

Q: What about the MIC [5] of the same compound?
A: ≤ 1 µg/mL

Q: And the MIC [6]?
A: ≤ 1 µg/mL

Q: Which MIC [1] does the source give for `CC(=O)NC[C@H]1CN(c2cc(F)c(N3CCNN(C(=O)Nc4nccs4)CC3)c(F)c2)C(=O)O1` [Example 83] here?
A: ≤ 1 µg/mL

Q: What about the MIC [2] of the same compound?
A: ≤ 1 µg/mL

Q: And the MIC [3]?
A: ≤ 1 µg/mL

Q: And the MIC [4]?
A: ≤ 1 µg/mL

Q: And the MIC [5]?
A: ≤ 1 µg/mL

Q: And the MIC [6]?
A: ≤ 1 µg/mL

Q: Which MIC [7] does the source give for `COc1c(N2CCNOCC2)c(F)cc2c(=O)c(C(=O)O)cn(C3CC3)c12` [Compound (71)] here?
A: ≤ 1 µg/mL

Q: And the MIC [8]?
A: ≤ 1 µg/mL

Q: And the MIC [9]?
A: ≤ 1 µg/mL

Q: What about the MIC [10] of the same compound?
A: ≤ 1 µg/mL

Q: What about the melting point of the same compound?
A: 222 to 224 °C

Q: For `O=C(NC[C@H]1CN(c2cc(F)c(N3CCNN(C(=O)Nc4nccs4)CC3)c(F)c2)C(=O)O1)C(F)F` [Example 84], which MIC [1] is on record?
A: ≤ 1 µg/mL

Q: And the MIC [2]?
A: ≤ 1 µg/mL

Q: What about the MIC [3] of the same compound?
A: ≤ 1 µg/mL

Q: And the MIC [4]?
A: ≤ 1 µg/mL

Q: What about the MIC [5] of the same compound?
A: ≤ 1 µg/mL

Q: And the MIC [6]?
A: ≤ 1 µg/mL
